Laboratory results published in patent publication US10478435B2, “Use of CRAC channel inhibitors for the treatment of stroke and traumatic brain injury” (CalciMedica, Inc., priority 2015, dated 2019).

Tested on: BV2 cells
Assay: Intracellular calcium accumulation in BV2 cells by live fluorescence microscopy with a calcium fluorescent probe
Format: cell-based
Settings: Compound at 10 uM, FIG. 7
Procedure: Described herein, in some embodiments CRAC channel inhibitors are neuroprotectants in brain ischemia and related conditions. A neuron cell line (Neuro-2A, N-2A) was either cultured alone or in co-culture with microglial BV2 cells. Cells were exposed to a cycle of 2 h oxygen glucose deprivation (OGD) plus 22 h reoxygenation in the absence or presence of inhibitor (concentrations 1-50 μM). Cell viability was determined using quantitative calorimetric MTT assay and live/dead assay using immunofluorescence imaging. Toll-like receptor (TLR)-3 and -4 agonists induced inflammatory responses in microglia leading to increased nitric oxide (NO) generation as determined by the Greiss reagent. Intracellular calcium was determined by live fluorescence microscopy using a calcium fluorescent probe. Peroxide levels were measured as an indicator of oxidative stress. CRAC channels proteins (STIM1 & ORAI1), phosphoactive stress kinase JNK1/2, iNOS and expression was determined by immunoblotting assays. NFκB, NFAT and CREB transcription factors activation was measured by phosphorylation and nuclear translocation. […] The functional activity of the CRAC channels was evaluated by the effect on intracellular calcium accumulation in BV2 cells. […]
Fluorescence-based A neuron cell line (Neuro-2A, N-2A) was either cultured alone or in co-culture with microglial BV2 cells. […]

Cc1nc2cc(C)c(-c3cnc(NC(=O)c4c(F)ccc(F)c4F)s3)cc2o1 [Compound D, N-(5-(2,5-dimethylbenzo[d]oxazol-6-yl)thiazol-2-yl)-2,3,6-trifluorobenzamide]
LPS activated calcium accumulation: blunts LPS activated calcium accumulation
